Source: BindingDB's records for doi:10.1016/s0960-894x(01)00405-x (Glaxosmithkline, 2001)
pIC50: −log10 of the molar value.

Each compound was assayed against T1, Enoyl-[acyl-carrier-protein] reductase [NADPH] FabI (Staphylococcus aureus (strain MRSA252), UniProt Q6GI75) (assay: Enzyme Inhibition Assay). Settings: pH 6.5; 30 °C.
T1 sequence (Q6GI75 whole entry): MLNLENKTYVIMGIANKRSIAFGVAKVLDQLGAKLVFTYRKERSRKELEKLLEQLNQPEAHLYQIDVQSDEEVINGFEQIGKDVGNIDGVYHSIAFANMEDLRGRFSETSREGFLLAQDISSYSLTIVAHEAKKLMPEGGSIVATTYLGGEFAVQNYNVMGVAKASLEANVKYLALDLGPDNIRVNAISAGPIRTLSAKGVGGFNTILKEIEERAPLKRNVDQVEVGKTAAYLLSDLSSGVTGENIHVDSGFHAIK
Procedure: Assays were carried out in half-area, 96-well microtiter plates. Compounds were evaluated in assay mixtures containing components specific for each enzyme. Inhibitors were varied over the range 0.01-10 uM. The consumption of NAD(P)H was monitored for 20 min at 30 °C by following the change in absorbance at 340 nm. IC50 values were estimated from a fit of the initial velocities to a standard equation.

pIC50	SMILES
5.85	O=C(c1ccc(O)cc1)N1CCc2c([nH]c3ccccc23)C1 [4-{1H,2H,3H,4H,9H-pyrido[3,4-b]indol-2-ylcarbonyl}phenol]
5.34	COC(=O)CCCCn1c2c(c3ccccc31)CCN(C(=O)c1ccc(O)cc1)C2 [methyl 5-{2-[(4-hydroxyphenyl)carbonyl]-1H,2H,3H,4H,9H-pyrido[3,4-b]indol-9-yl}pentanoate]
5.57	O=C(c1ccccc1)N1CCc2c([nH]c3ccccc23)C1 [2-benzoyl-1H,2H,3H,4H,9H-pyrido[3,4-b]indole]
5.89	O=C(c1ccc(O)cc1)N1CCc2c(n(Cc3ccccc3)c3ccccc23)C1 [4-({9-benzyl-1H,2H,3H,4H,9H-pyrido[3,4-b]indol-2-yl}carbonyl)phenol]
5.11	CN1Cc2cc(C(=O)N3CCc4c([nH]c5ccccc45)C3)ccc2NC(CC(=O)O)C1=O (stereo not drawn) [2-(4-methyl-3-oxo-7-{1H,2H,3H,4H,9H-pyrido[3,4-b]indol-2-ylcarbonyl}-2,3,4,5-tetrahydro-1H-1,4-benzodiazepin-2-yl)acetic acid]
5.01	COC(=O)Cn1c2c(c3ccccc31)CCN(C(=O)c1ccc(O)cc1)C2 [methyl 2-{2-[(4-hydroxyphenyl)carbonyl]-1H,2H,3H,4H,9H-pyrido[3,4-b]indol-9-yl}acetate]
6.38	O=C(c1ccc(O)cc1)N1CCc2c(n(Cc3cccc(O)c3)c3ccccc23)C1 [4-({9-[(3-hydroxyphenyl)methyl]-1H,2H,3H,4H,9H-pyrido[3,4-b]indol-2-yl}carbonyl)phenol]
5.85	Cn1c2c(c3ccccc31)CCN(C(=O)c1ccc(O)cc1)C2 [4-({9-methyl-1H,2H,3H,4H,9H-pyrido[3,4-b]indol-2-yl}carbonyl)phenol]
